Test results taken from patent US20170007553A1, “METHODS FOR THE PREVENTION AND TREATMENT OF CEREBRAL ISCHEMIA” (Edison Pharmaceuticals, Inc., priority 2009, published 2017).

Experiments:
[1] = fraction of the activity of natural alpha-tocopherol; cited from earlier work
neuronal cells = conditions: nM/L concentrations; by suppressing early activation of c-Src kinase and 12-lipoxygenase; cited from earlier work
[2] = system: cerebral ischemia induced in rats (MCAO); assay: Animal cerebral infarct assay, rat middle cerebral artery occlusion (MCAO) with reperfusion; assay type: in vivo; conditions: for reduction of total infarct size: gavage, 500 mg/kg
[3] = administered at the time of reperfusion, rats

Compound: Cc1cc(O)cc2c1O[C@](C)(CCC[C@H](C)CCC[C@H](C)CCCC(C)C)CC2 [Delta-tocopherol]
- activity relative to natural alpha-tocopherol [1]: one hundredth

Compound: Cc1c(C)c2c(c(C)c1O)CC[C@@](C)(CCC[C@H](C)CCC[C@H](C)CCCC(C)C)O2 [alpha-tocopherol]
- blocking of glutamate-induced death (neuronal cells): not

Compound: CC(C)=CCC/C(C)=C/CC/C(C)=C/CC[C@@](C)(O)CCC1=C(C)C(=O)C(C)=C(C)C1=O [alpha-tocotrienol quinone]
- reduction of cerebral edema relative to controls [2, 3]: 40%
- reduction of total infarct volume relative to controls [2, 3]: 40%
- reduction of total ischemic damage relative to controls [2, 3]: 40%
- reduction of total infarct size ([2]; administered at reperfusion): 40%
- reduction of total infarct size ([2]; administered at the time of MCAO): 40%

Compound: alpha-tocotrienol
- blocking of glutamate-induced death (neuronal cells): blocked glutamate-induced death
